According to ChEMBL document CHEMBL4028858, “Structural Biology-Inspired Discovery of Novel KRAS-PDEδ Inhibitors” (J Med Chem, 2017):
≈ marks a conversion by molar mass, not a printed value. One block for each compound: values may come before it. Calls of active or inactive are those of the source. The rule behind the calls is not given here.

Experiments:
CAPAN-1 [1] = assay: Induction of apoptosis in KRAS-dependent human Capan1 cells incubated for 48 hrs by Annexin-V FITC/propidium iodide staining-based flow cytometry; type: functional, cell-based
[2] = Aqueous solubility of the compound at 5 mg/ml measured after 24 hrs by HPLC method; type: physicochemical; conditions: water (aqueous)
CAPAN-1 [3] = assay: Induction of apoptosis in KRAS-dependent human Capan1 cells at 25 uM incubated for 48 hrs by Annexin-V FITC/propidium iodide staining-based flow cytometry relative to control; type: functional
CAPAN-1 [4] = assay: Antiproliferative activity against KRAS-dependent human Capan1 cells after 48 hrs by CCK8 assay
CAPAN-1 [5] = assay: Downregulation of PDEdelta protein expression in KRAS-dependent human Capan1 cells at 10 uM incubated for 2 hrs by immunofluorescence staining-based method; type: functional, cell-based
[6] = molecular target: T1, Retinal rod rhodopsin-sensitive cGMP 3',5'-cyclic phosphodiesterase subunit delta (Homo sapiens, UniProt O43924); conditions: 10 uM
T1 sequence (O43924 whole entry): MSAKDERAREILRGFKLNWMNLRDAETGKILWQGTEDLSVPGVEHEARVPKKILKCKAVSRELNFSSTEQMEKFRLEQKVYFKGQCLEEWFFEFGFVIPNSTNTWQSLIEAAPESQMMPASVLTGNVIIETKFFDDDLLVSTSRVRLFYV
Description: Inhibition of PDEdelta in KRAS-dependent human Capan1 cells assessed as increase in endogenous RAS distribution to endomembranes at 10 uM incubated for 2 hrs by immunofluorescence staining based method

[7] = molecular target: T1, Retinal rod rhodopsin-sensitive cGMP 3',5'-cyclic phosphodiesterase subunit delta; conditions: 10 uM; remark: listed apart in the source
Description: Inhibition of PDEdelta in KRAS-dependent human Capan1 cells assessed as downregulation of EGF-induced ERK phosphorylation at Thr202/Thr204 at 10 uM incubated for >5 hrs by Western blot method

[8] = molecular target: T1, Retinal rod rhodopsin-sensitive cGMP 3',5'-cyclic phosphodiesterase subunit delta; conditions: 10 uM; remark: listed apart in the source
Description: Inhibition of PDEdelta in KRAS-dependent human Capan1 cells assessed as downregulation of EGF-induced AKT phosphorylation at Ser473 at 10 uM incubated for >5 hrs by Western blot method

[9] = molecular target: T1, Retinal rod rhodopsin-sensitive cGMP 3',5'-cyclic phosphodiesterase subunit delta; conditions: 1 mM
Description: Binding affinity to PDEdelta (unknown origin) assessed as change in melting temperature at 1 mM by circular dichroism spectroscopy

[10] = molecular target: T1, Retinal rod rhodopsin-sensitive cGMP 3',5'-cyclic phosphodiesterase subunit delta
Description: Inhibition of Atrovastatin-PEG3-FITC binding to PDEdelta (unknown origin) incubated for 60 mins by fluorescence anisotropy assay

CAPAN-1 [11] = assay: Antiproliferative activity against KRAS-dependent human Capan1 cells at 100 uM after 48 hrs by CCK8 assay relative to control; type: functional
CAPAN-1 [12] = assay: Induction of apoptosis in KRAS-dependent human Capan1 cells at 50 uM incubated for 48 hrs by Annexin-V FITC/propidium iodide staining-based flow cytometry relative to control; type: functional
CAPAN-1 [13] = assay: Downregulation of PDEdelta protein expression in KRAS-dependent human Capan1 cells at 25 uM incubated for 2 hrs by immunofluorescence staining-based method; type: functional, cell-based
CAPAN-1 [14] = assay: Potency index, ratio of deltazinone IC50 to test compound IC50 for KRAS-dependent human Capan1 cells; type: functional
Homo sapiens = species on record: Homo sapiens; assay: Effect on EGF-induced ERK phosphorylation at Thr202/Tyr204 in human Capan1 cells at 25 uM after 1 hr by Western blot method
[15] = molecular target: RAC-alpha serine/threonine-protein kinase (Homo sapiens) (UniProt P31749); assay: […] of EGF-induced AKT phosphorylation at Ser473 in human Capan1 cells at 25 uM after 1 hr by Western blot method; type: cell-based
Chain of RAC-alpha serine/threonine-protein kinase (Homo sapiens) (P31749 whole entry): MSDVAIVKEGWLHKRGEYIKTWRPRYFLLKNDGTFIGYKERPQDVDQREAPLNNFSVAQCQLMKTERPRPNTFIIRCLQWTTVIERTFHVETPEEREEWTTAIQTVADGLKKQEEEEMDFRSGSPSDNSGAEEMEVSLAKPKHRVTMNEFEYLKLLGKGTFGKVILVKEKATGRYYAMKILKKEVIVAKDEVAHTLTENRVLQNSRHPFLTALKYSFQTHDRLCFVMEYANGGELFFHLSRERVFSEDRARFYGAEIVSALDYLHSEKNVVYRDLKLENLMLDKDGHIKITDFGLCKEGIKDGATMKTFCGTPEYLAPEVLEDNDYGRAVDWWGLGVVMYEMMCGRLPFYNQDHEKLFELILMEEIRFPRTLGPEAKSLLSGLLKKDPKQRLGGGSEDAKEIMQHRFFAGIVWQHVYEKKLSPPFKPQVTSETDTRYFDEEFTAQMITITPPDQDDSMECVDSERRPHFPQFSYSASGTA

CAPAN-1 [16] = assay: Induction of apoptosis in KRAS-dependent human Capan1 cells at 10 uM incubated for 48 hrs by Annexin-V FITC/propidium iodide staining-based flow cytometry relative to control; type: functional

solubility at 24 h [2]: 403 µM (≈ 250 µg/mL)
Compound: Cc1ccc(-n2nc3c(=O)n(CCCN4CCC(N5C(=O)c6ccccc6NC5c5ccccc5F)CC4)nc(C)c3c2C)cc1 (stereo not given)
Activity (CAPAN-1 [1]): Dose-dependent effect
Activity (CAPAN-1 [3]): 50%
IC50 (CAPAN-1 [4]; Homo sapiens, CAPAN-1, 48 h): 27.6 µM

solubility at 24 h [2]: 14 µM (≈ 7.93 µg/mL)
Compound: O=C1c2ccccc2NC(c2ccccc2F)N1CCCCCCN1C(=O)c2ccccc2NC1c1ccccc1F (stereo not given)

inhibition [6]: Active
inhibition [7]: Active
inhibition [8]: Active
Compound: Cc1ccc(-n2nc3c(=O)n(CCC(=O)N4CCC(N5C(=O)c6ccccc6NC5c5ccccc5F)CC4)nc(C)c3c2C)cc1 (stereo in doubt; 3b) [listing 1 of 2 here]
Activity (CAPAN-1 [5]): Active
Activity (CAPAN-1 [1]): Dose-dependent effect

Compound: O=C1c2ccccc2N[C@@H](c2ccccc2F)N1c1ccccc1
ΔTm [9]: 14 °C

Kd [10]: 0.037 µM
Compound: Cc1ccc(-n2nc3c(=O)n(CCC(=O)N4CCC(N5C(=O)c6ccccc6NC5c5ccccc5F)CC4)nc(C)c3c2C)cc1 (single isomer, unassigned; (-))
IC50 (CAPAN-1 [4]; capan-1): 25.6 µM

solubility at 24 h [2]: 70.6 µM (≈ 41.9 µg/mL)
Compound: O=C1c2ccccc2NC(c2ccccc2F)N1CCN1CCC(N2C(=O)c3ccccc3NC2c2ccccc2F)CC1 (stereo not given)
Activity (CAPAN-1 [11]): 48.9%

Kd [10]: 0.002 µM
solubility at 24 h [2]: 268 µM (≈ 170 µg/mL)
Compound: Cc1ccc(-n2nc3c(=O)n(CCC(=O)N4CCC(N5C(=O)c6ccccc6NC5c5ccccc5F)CC4)nc(C)c3c2C)cc1 (stereo in doubt; 3b) [listing 2 of 2 here]
Activity (CAPAN-1 [3]): 50%
IC50 (CAPAN-1 [4]; capan-1): 18.6 µM

solubility at 24 h [2]: 3.2 µM (≈ 1.93 µg/mL)
Compound: O=C1c2ccccc2NC(c2ccccc2F)N1CCOc1ccc(N2C(=O)c3ccccc3NC2c2ccccc2F)cc1 (stereo not given)

Compound: O=C1c2ccccc2N[C@H](c2ccccc2F)N1c1ccccc1
ΔTm [9]: 5.75 °C

Compound: O=C1c2ccccc2N[C@@H](c2ccccc2F)N1CCN1CCC(N2C(=O)c3ccccc3N[C@H]2c2ccccc2F)CC1
Activity (CAPAN-1 [12]): 39.3%
Activity (CAPAN-1 [3]): 23.6%
Activity (CAPAN-1 [13]): Active

Compound: O=C1c2ccccc2NC(c2ccccc2F)N1c1ccccc1 (racemic)
ΔTm [9]: 12.7 °C

solubility at 24 h [2]: 0.37 µM (≈ 0.119 µg/mL)
Compound: O=C1c2cccc3cccc(c23)N1c1ccc(-c2ccccc2)cc1

Kd [10]: 0.0006 µM
Compound: Cc1ccc(-n2nc3c(=O)n(CCC(=O)N4CCC(N5C(=O)c6ccccc6NC5c5ccccc5F)CC4)nc(C)c3c2C)cc1 (stereo in doubt; (+)-3b)
Ratio IC50 (CAPAN-1 [14]): 4
IC50 (CAPAN-1 [4]; capan-1): 12.4 µM

Activity [15]: Active
Compound: Cc1ccc(-n2nc3c(=O)n(CCCC(=O)NCC(C)c4ccccc4)nc(C)c3c2C)cc1 (stereo not given)
Activity (Homo sapiens): inactive
Activity (CAPAN-1 [16]): 10%
IC50 (CAPAN-1 [4]; Homo sapiens, CAPAN-1, 48 h): 56.9 µM

solubility at 24 h [2]: 8.9 µM (≈ 4.92 µg/mL)
Compound: O=C1c2ccccc2NC(c2ccccc2F)N1CCCCCN1C(=O)c2ccccc2NC1c1ccccc1F (stereo not given)

solubility at 24 h [2]: 30.9 µM (≈ 17.9 µg/mL)
Compound: O=C1c2ccccc2NC(c2ccccc2F)N1CCCCCCCN1C(=O)c2ccccc2NC1c1ccccc1F (stereo not given)
